In ChEMBL document CHEMBL5252658, “Conversion of a Cardiac Muscle Modulator from an Inhibitor to an Activator” (ACS Med Chem Lett, 2023):
Activity calls are given as the source filed them. The rule behind the calls is not given here.

Columns and labels:
[1] = Binding affinity to CTNI-CTNC N-domain chimera (unknown origin) assessed as dissociation constant; design: species or system Homo sapiens
Bos taurus = organism: Bos taurus; test: Modulation of bovine cardiac myofibrils ATPase activity at 50 uM relative to control; conditions: filed as modulator
Rattus norvegicus = organism: Rattus norvegicus; test: Cardiovascular activity in rat ventricular trabeculae assessed as increase in calcium sensitivity of force development at 50 uM; assay type: functional

Kd [1] [µM]	Activity (Bos taurus) [%]	Structure (SMILES)	Activity (Rattus norvegicus)
60	30	NCCCCCCCCNS(=O)(=O)c1cccc(-c2ccc(F)cc2F)c1	
470		NCCCCCCNS(=O)(=O)c1cccc2c(Cl)cccc12	
120	30	NCCCCCCCNS(=O)(=O)c1cccc(-c2ccc(F)cc2F)c1	
200	30	NCCCCCCNS(=O)(=O)c1cccc(-c2ccc(F)cc2F)c1	Active
